The experiment has as its system primary hepatocytes isolated from rats. The experiment is described as follows: Hepatocyte protective effect against doxorubicin treatment (cell viability, WST-1). Particulars: primary rat hepatocytes pretreated with compound for 30 min, viability by WST-1 after 24-48 hours. Type of experiment: cell-based. The protocol: Various endogenous/exogenous attacks on cells trigger the mechanisms of cell death which is broadly classified into two types—i.e., apoptosis or necrosis. Using these cell death mechanisms, in the present experimental example, primary hepatocytes isolated from rats were treated with drugs which were clinically shown to result in serious side-effects of hepatocyte toxicity or various chemicals which derive cell death, and the compounds synthesized in the Examples were estimated for their hepatocyte protective effects, after 24-48 hours. The substances used to cause hepatocyte death include CCl4, ActD, H2O2, doxorubicin, anti-Fas Ab/Actinomycin D, acetaminophen, EtOH, CdCl2, palmitate, stearate, cyclophosphamide, terfenadine, diclofenac, simvastatin, and adefovir. Primary hepatocytes were isolated using the method of Seglen P O (Experimental Cell Research 74 (1972), pp. 450-454). Briefly, hepatocytes were isolated according to the two-step collagenase perfusion method, and dead cells were removed by low speed (500 rpm) centrifugation for 10 min using percoll gradient (Kreamer B L et al., In Vitro Cellular & Developmental Biology 22 (1986), pp. 201-211). During this step, the viability of cells was maintained 90% or above. The cells were suspended in HepatoZYME media (Gibco BRL), and the number of cells was counted. 1.5×10^4 cells in 100 μl were placed into the collagen-coated 96-well plate (BD Biocoat), and adhered on the bottom for 3-4 hours.
In order to assess the hepatocyte protective effect, the above adhered cells were pretreated with the Example compounds for 30 min. At this time, the concentration of the Example compounds was serially diluted by 2-fold or 3-fold over 5 steps starting from 30 μM, 10 μM or 1 μM depending on the experiments, and the final concentration of DMSO was adjusted to 0.2%. 30 min after the treatment by the compounds, the cells were treated by the substances causing hepatocyte death or hepatotoxic drugs at the concentrations indicated in Table 1. After 24-48 hours, the viability of cells was determined to estimate the hepatocyte protective effect. The viability of cells was determined using the WST-1 (MK-400, Takeda) method by the absorbance at 440 nm. Hepatocyte protective effects of the Example compounds were represented by “EC50” which was calculated from measured values. “EC50” herein means the concentration of the compound at which 50% of maximum protective effect is observed in the experiment.
Background: Formazan colour is commonly taken as a measure of viable cells.

The term EC50 denotes the concentration giving half of the maximal effect. As for “1-(4-{5-Chloro-2-[2-(3-trifluoromethyl-5,6,7,8-tetrahydro-[1,2,4]triazolo[4,3-a]pyrazin-1-yl)-ethyl]-1H-indol-7-yl}-piperidin-1-yl)-ethanone [Example 13]”, the half-maximal effective concentration (EC50) came out at 1800 nM.

Regarding “4-[5-Methyl-7-(tetrahydropyran-4-ylmethylamino)-1H-indol-2-ylmethyl)-piperazin-2-one [Example 9]”, the EC50 amounted to 250 nM. As for `O=C1CN(Cc2cc3cc(Cl)cc(NC4CCCC4)c3[nH]2)CCN1` [Example 1, 4-(5-Chloro-7-cyclopentylamino-1H-indol-2-ylmethyl)-piperazin-2-one], where the note is “Hepatocyte”, the EC50 is 160 nM. Take `CC(=O)N1CCC(Nc2cc(Cl)cc3cc(CCN4CCNC(=O)C4)[nH]c23)CC1` [Example 3, 4-{2-[7-(1-Acetyl-piperidin-4-ylamino)-5-chloro-1H-indol-2-yl]-ethyl}-piperazin-2-one]: the EC50 (Hepatocyte) was determined as 270 nM.

Regarding `Cc1cc(NCC2CCOCC2)c2[nH]c(CN3CCS(=O)(=O)CC3)cc2c1` [Example 7, [2-(1,1-Dioxothiomorpholin-4-ylmethyl)-5-methyl-1H-indol-7-yl]-(tetrahydropyran-4-ylmethyl)-amine], the EC50 (Hepatocyte) is 440 nM. Take `Cc1cc(NC2CCCC2)c2[nH]c(CN3CCS(=O)(=O)CC3)cc2c1` [Example 8, Cyclopentyl-[2-(1,1-dioxothiomorpholin-4-ylmethyl)-5-methyl-1H-indol-7-yl]-amine]: the EC50 (Hepatocyte) was determined as 240 nM. `CS(=O)(=O)N1CCC(Nc2cc(Cl)cc3cc(CCN4CCn5c(nnc5C(F)(F)F)C4)[nH]c23)CC1` [Example 12]: the concentration for a half-maximal effect (EC50) is 600 nM. As for `O=C1CN(CCc2cc3cc(Cl)cc(NCc4ccccc4)c3[nH]2)CCN1` [Example 14, 4-[2-(7-Benzylamino-5-chloro-1H-indol-2-yl)-ethyl]-piperazin-2-one], for the setting “Hepatocyte”, the EC50 came to 300 nM. `O=S1(=O)CCN(CCc2cc3cc(Cl)cc(NC4CCOCC4)c3[nH]2)CC1` [Example 18]: the EC50 worked out at 240 nM. As for `O=S1(=O)CCN(CCc2cc3cc(Cl)cc(NC4CCCC4)c3[nH]2)CC1` [Example 19, {5-Chloro-2-[2-(1,1-dioxothiomorpholin-4-yl)-ethyl]-1H-indol-7-yl}-cyclopentyl-amine], for the setting “Hepatocyte”, the EC50 amounted to 270 nM. Take `O=C1CN(CCc2cc3cc(Cl)cc(NCC4CCOCC4)c3[nH]2)CCN1` [Example 22, 4-(2-{5-Chloro-7-[(tetrahydropyran-4-ylmethyl)-amino]-1H-indol-2-yl}-ethyl)-piperazin-2-one]: the EC50 (Hepatocyte) turned out to be 900 nM. Same read-out and setting: the figure for `Clc1cc(NC2CCCC2)c2[nH]c(C3CCNCC3)cc2c1` [Example 48, (5-Chloro-2-piperidin-4-yl-1H-indol-7-yl)-cyclopentyl-amine] is 210 nM.

Values taken from US10927097B2, “Indole compound as inhibitor of necrosis” (LG CHEM, LTD., priority 2013, dated 2021).
